# From US9833497B2, “Human originated EGF domain proteins and use of the same” (CHENGDU SOURCEBIO LIMITED-LIABILITY COMPANY, priority 2013, dated 2017)
# How the values were obtained:
# Format in all cases: cell-based
# E. coli DH5α = experiment: Antibacterial activity: MIC and growth curve against E. coli DH5α in 96-well plate; details: minimal inhibitory concentration against E. coli DH5α; 96-well plate, 5×10^5 CFU/mL, 37° C., judged after 8 h
# Method in brief: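 Log-phase DH5α (OD600 about 0.5, 37° C, 185 rpm in LB) was pelleted, resuspended in fresh LB and seeded at 5×10^5 CFU/mL with recombinant protein at 50, 25 and 12.5 μg/mL (two-fold series), in triplicate. Plates were shaken at 175 rpm, 37° C, and OD600 was read every 30 min. MIC was the lowest concentration with no growth.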
# E. coli BL21 = experiment: MIC against Gram-negative bacteria: E. coli BL21
# Method in brief: (§1)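 Bacteria grown in LB at 37° C with shaking to McFarland 0.5, pelleted and resuspended in fresh LB, then seeded at 5×10^5 CFU/mL per well. Purified recombinant human EGF domain proteins were two-fold serially diluted in triplicate and plates shaken at 37° C, 175 rpm. MIC is the lowest protein concentration with no bacterial growth.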
# Pseudomonas aeruginosa = experiment: MIC against Gram-negative bacteria: Pseudomonas aeruginosa
# Method in brief: as §1
# Klebsiella pneumonia = experiment: MIC against Gram-negative bacteria: Klebsiella pneumonia
# Method in brief: as §1
# Enterobacter cloacae = experiment: MIC against Gram-negative bacteria: Enterobacter cloacae
# Method in brief: as §1
# Aeromonas hydrophila = experiment: MIC against Gram-negative bacteria: Aeromonas hydrophila
# Method in brief: as §1
# Citrobacter diversus = experiment: MIC against Gram-negative bacteria: Citrobacter diversus
# Method in brief: as §1
# Moraxella catarrhalis = experiment: MIC against Gram-negative bacteria: Moraxella catarrhalis
# Method in brief: as §1
# Proteus mirabilis = experiment: MIC against Gram-negative bacteria: Proteus mirabilis
# Method in brief: as §1
# Proteus vulgaris = experiment: MIC against Gram-negative bacteria: Proteus vulgaris
# Method in brief: as §1
# Serratia marcescens = experiment: MIC against Gram-negative bacteria: Serratia marcescens
# Method in brief: as §1
# [1] = 96-well plate, 5×10^5 CFU/mL, 37° C., 10 h
# [2] = E. coli BL21, 5×10^5 CFU/mL, 10 h cultivation at 37° C.
# [3] = Pseudomonas aeruginosa, 5×10^5 CFU/mL, 10 h cultivation at 37° C.
# [4] = Klebsiella pneumonia, 5×10^5 CFU/mL, 10 h cultivation at 37° C.
# [5] = Enterobacter cloacae, 5×10^5 CFU/mL, 10 h cultivation at 37° C.
# [6] = Aeromonas hydrophila, 5×10^5 CFU/mL, 10 h cultivation at 37° C.
# [7] = Citrobacter diversus, 5×10^5 CFU/mL, 10 h cultivation at 37° C.
# [8] = Moraxella catarrhalis, 5×10^5 CFU/mL, 10 h cultivation at 37° C.
# [9] = Proteus mirabilis, 5×10^5 CFU/mL, 10 h cultivation at 37° C.
# [10] = Proteus vulgaris, 5×10^5 CFU/mL, 10 h cultivation at 37° C.
# [11] = Serratia marcescens, 5×10^5 CFU/mL, 10 h cultivation at 37° C.
# [12] = 10 h cultivation at 37° C., 5×10^5 CFU/mL, two-fold serial dilution
substance,measurement,setting,value
PRT463 (DVNECLQLPKACAYQCHNLQGSYRCLCPPGQTLLRDGKACT; listed as Homo sapiens),MIC,E. coli DH5α,50 µg/mL
same,MIC against E. coli BL21,E. coli BL21; [1],12.5 µg/mL
same,MIC against P. aeruginosa,Pseudomonas aeruginosa; [1],50 µg/mL
same,MIC against K. pneumonia,Klebsiella pneumonia; [1],12.5 µg/mL
same,MIC against E. cloacae,Enterobacter cloacae; [1],50 µg/mL
same,MIC against A. hydrophila,Aeromonas hydrophila; [1],12.5 µg/mL
same,MIC against C. diversus,Citrobacter diversus; [1],50 µg/mL
same,MIC against M. catarrhalis,Moraxella catarrhalis; [1],12.5 µg/mL
same,MIC against P. mirabilis,Proteus mirabilis; [1],12.5 µg/mL
same,MIC against P. vulgaris,Proteus vulgaris; [1],12.5 µg/mL
same,MIC against S. marcescens,Serratia marcescens; [1],50 µg/mL
PRT1474 (IPDQCSPLPCNEDGYMSCKDGKASFTCTCKPGWQGEKCE; listed as Homo sapiens),MIC,E. coli DH5α,50 µg/mL
same,MIC against E. coli BL21,E. coli BL21; [2],12.5 µg/mL
same,MIC against P. aeruginosa,Pseudomonas aeruginosa; [3],25 µg/mL
same,MIC against K. pneumonia,Klebsiella pneumonia; [4],25 µg/mL
same,MIC against E. cloacae,Enterobacter cloacae; [5],50 µg/mL
same,MIC against A. hydrophila,Aeromonas hydrophila; [6],25 µg/mL
same,MIC against C. diversus,Citrobacter diversus; [7],12.5 µg/mL
same,MIC against M. catarrhalis,Moraxella catarrhalis; [8],25 µg/mL
same,MIC against P. mirabilis,Proteus mirabilis; [9],50 µg/mL
same,MIC against P. vulgaris,Proteus vulgaris; [10],12.5 µg/mL
same,MIC against S. marcescens,Serratia marcescens; [11],25 µg/mL
PRT973 (DLPDCSPSSCFNGGTCVDGVNSFSCLCRPGYTGAHCQ; listed as Homo sapiens),MIC,E. coli DH5α,12.5 µg/mL
same,MIC,"E. coli BL21; E. coli BL21, 10 h cultivation at 37° C.",12.5 µg/mL
same,MIC,"Pseudomonas aeruginosa; P. aeruginosa, 10 h cultivation at 37° C.",12.5 µg/mL
same,MIC,"Klebsiella pneumonia; K. pneumonia, 10 h cultivation at 37° C.",50 µg/mL
same,MIC,"Enterobacter cloacae; E. cloacae, 10 h cultivation at 37° C.",12.5 µg/mL
same,MIC,"Aeromonas hydrophila; A. hydrophila, 10 h cultivation at 37° C.",25 µg/mL
same,MIC,"Citrobacter diversus; C. diversus, 10 h cultivation at 37° C.",50 µg/mL
same,MIC,"Moraxella catarrhalis; M. catarrhalis, 10 h cultivation at 37° C.",12.5 µg/mL
same,MIC,"Proteus mirabilis; P. mirabilis, 10 h cultivation at 37° C.",50 µg/mL
same,MIC,"Proteus vulgaris; P. vulgaris, 10 h cultivation at 37° C.",25 µg/mL
same,MIC,"Serratia marcescens; S. marcescens, 10 h cultivation at 37° C.",12.5 µg/mL
PRT1438 (PVKSCSEPRCFNGGTCQQALYFSDFVCQCPEGFAGKCCE; listed as Homo sapiens),MIC,E. coli DH5α,12.5 µg/mL
same,MIC against E. coli BL21,E. coli BL21; [2],25 µg/mL
same,MIC against P. aeruginosa,Pseudomonas aeruginosa; [3],50 µg/mL
same,MIC against K. pneumonia,Klebsiella pneumonia; [4],25 µg/mL
same,MIC against E. cloacae,Enterobacter cloacae; [5],12.5 µg/mL
same,MIC against A. hydrophila,Aeromonas hydrophila; [6],25 µg/mL
same,MIC against C. diversus,Citrobacter diversus; [7],50 µg/mL
same,MIC against M. catarrhalis,Moraxella catarrhalis; [8],12.5 µg/mL
same,MIC against P. mirabilis,Proteus mirabilis; [9],50 µg/mL
same,MIC against P. vulgaris,Proteus vulgaris; [10],25 µg/mL
same,MIC against S. marcescens,Serratia marcescens; [11],12.5 µg/mL
PRT1078 (GTNKCRVNNGGCSSLCLATPGSRQCACAEDQVLDADGVTCL; listed as Homo sapiens),MIC,E. coli DH5α,25 µg/mL
same,MIC E. coli BL21,E. coli BL21; [12],50 µg/mL
same,MIC P. aeruginosa,Pseudomonas aeruginosa; [12],25 µg/mL
same,MIC K. pneumonia,Klebsiella pneumonia; [12],12.5 µg/mL
same,MIC E. cloacae,Enterobacter cloacae; [12],25 µg/mL
same,MIC A. hydrophila,Aeromonas hydrophila; [12],50 µg/mL
same,MIC C. diversus,Citrobacter diversus; [12],12.5 µg/mL
same,MIC M. catarrhalis,Moraxella catarrhalis; [12],50 µg/mL
same,MIC P. mirabilis,Proteus mirabilis; [12],12.5 µg/mL
same,MIC P. vulgaris,Proteus vulgaris; [12],50 µg/mL
same,MIC S. marcescens,Serratia marcescens; [12],12.5 µg/mL
PRT103 (CSSYGKLCRNGGKCRERPIGFFCDCTFSAYTGPFC; listed as Homo sapiens),MIC,E. coli DH5α,50 µg/mL
same,MIC (μg/mL) E. coli BL21,"E. coli BL21; E. coli BL21, 96-well plate, 5×10^5 CFU/mL, 37° C., 10 h",12.5 µg/mL
same,MIC (μg/mL) P. aeruginosa,"Pseudomonas aeruginosa; Pseudomonas aeruginosa, 96-well plate, 5×10^5 CFU/mL, 37° C., 10 h",50 µg/mL
same,MIC (μg/mL) K. pneumonia,"Klebsiella pneumonia; Klebsiella pneumonia, 96-well plate, 5×10^5 CFU/mL, 37° C., 10 h",12.5 µg/mL
same,MIC (μg/mL) E. cloacae,"Enterobacter cloacae; Enterobacter cloacae, 96-well plate, 5×10^5 CFU/mL, 37° C., 10 h",12.5 µg/mL
same,MIC (μg/mL) A. hydrophila,"Aeromonas hydrophila; Aeromonas hydrophila, 96-well plate, 5×10^5 CFU/mL, 37° C., 10 h",12.5 µg/mL
same,MIC (μg/mL) C. diversus,"Citrobacter diversus; Citrobacter diversus, 96-well plate, 5×10^5 CFU/mL, 37° C., 10 h",12.5 µg/mL
same,MIC (μg/mL) M. catarrhalis,"Moraxella catarrhalis; Moraxella catarrhalis, 96-well plate, 5×10^5 CFU/mL, 37° C., 10 h",12.5 µg/mL
same,MIC (μg/mL) P. mirabilis,"Proteus mirabilis; Proteus mirabilis, 96-well plate, 5×10^5 CFU/mL, 37° C., 10 h",25 µg/mL
same,MIC (μg/mL) P. vulgaris,"Proteus vulgaris; Proteus vulgaris, 96-well plate, 5×10^5 CFU/mL, 37° C., 10 h",12.5 µg/mL
same,MIC (μg/mL) S. marcescens,"Serratia marcescens; Serratia marcescens, 96-well plate, 5×10^5 CFU/mL, 37° C., 10 h",25 µg/mL
